ChEMBL document CHEMBL1909046, “DrugMatrix in vitro pharmacology data”

Key:
Acetylcholinesterase = Acetylcholinesterase (Homo sapiens, UniProt P22303); test: DRUGMATRIX: Acetylcholinesterase enzyme inhibition (substrate: acetylthiocholine); format: cell-based, HEK293; settings: hek293; Not Active = under 50% inhibition at 10 µM
[1] = DRUGMATRIX: Interleukin IL-1 radioligand binding (ligand: [125I] interleukin 1beta); format: cell membranes, Membrane; settings: nih3t3; Not Active = under 50% inhibition at 10 µM
[2] = target: T1, Vasoactive intestinal polypeptide receptor 1 (Homo sapiens, UniProt P32241); format: cell membranes, Membrane; settings: ht-29; further: in other assays of this panel Not Active means under 50% inhibition at 10 µM
T1 sequence (P32241 whole entry): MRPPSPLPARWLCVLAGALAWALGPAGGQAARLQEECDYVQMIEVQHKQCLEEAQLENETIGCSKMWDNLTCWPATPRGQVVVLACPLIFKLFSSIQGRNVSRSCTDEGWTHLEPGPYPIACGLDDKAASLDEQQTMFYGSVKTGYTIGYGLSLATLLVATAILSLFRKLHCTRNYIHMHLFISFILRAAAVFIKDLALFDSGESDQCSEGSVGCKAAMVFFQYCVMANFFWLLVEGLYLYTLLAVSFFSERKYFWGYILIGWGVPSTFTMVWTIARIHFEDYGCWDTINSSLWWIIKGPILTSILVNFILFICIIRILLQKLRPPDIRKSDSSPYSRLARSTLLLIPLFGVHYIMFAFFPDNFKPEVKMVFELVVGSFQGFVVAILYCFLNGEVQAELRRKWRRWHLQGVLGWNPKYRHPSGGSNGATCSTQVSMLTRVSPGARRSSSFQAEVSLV

Mu-type opioid receptor = Mu-type opioid receptor (Homo sapiens, UniProt P35372); test: DRUGMATRIX: Opiate mu (OP3, MOP) radioligand binding (ligand: [3H] Diprenorphine); format: cell membranes, CHO-K1, Membrane; settings: cho-k1; Not Active = under 50% inhibition at 10 µM
Cytochrome P450 2D6 = Cytochrome P450 2D6 (Homo sapiens, UniProt P10635); settings: bti-tn-5b1-4; further: in other assays of this panel Not Active means under 50% inhibition at 10 µM
[3] = target: Delta-type opioid receptor (Homo sapiens, UniProt P41143); format: cell membranes, HEK293, Membrane; settings: hek293; further: in other assays of this panel Not Active means under 50% inhibition at 10 µM
Adenosine receptor A3 = target: T2, Adenosine receptor A3 (Homo sapiens, UniProt P0DMS8); format: cell membranes, CHO-K1, Membrane; settings: cho-k1;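 further: radioligand binding assay with AB-MECA serving as the labeled ligand; in other assays of this panel Not Active means under 50% inhibition at 10 µM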
T2 sequence (P0DMS8 whole entry): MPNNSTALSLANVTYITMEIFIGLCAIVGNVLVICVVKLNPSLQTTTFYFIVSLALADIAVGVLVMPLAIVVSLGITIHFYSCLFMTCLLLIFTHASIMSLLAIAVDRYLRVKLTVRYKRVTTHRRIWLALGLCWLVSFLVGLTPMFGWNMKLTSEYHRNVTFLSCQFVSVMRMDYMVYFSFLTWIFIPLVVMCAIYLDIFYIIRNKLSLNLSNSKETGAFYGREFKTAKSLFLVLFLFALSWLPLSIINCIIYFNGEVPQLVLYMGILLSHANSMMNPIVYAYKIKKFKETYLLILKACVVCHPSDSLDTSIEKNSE

D(4) dopamine receptor = target: T3, D(4) dopamine receptor (Homo sapiens, UniProt P21917); test: DRUGMATRIX: Dopamine D4.2 radioligand binding (ligand: [3H] Spiperone); format: cell membranes, CHO-K1, Membrane; settings: cho-k1; Not Active = under 50% inhibition at 10 µM
T3 sequence (P21917 whole entry): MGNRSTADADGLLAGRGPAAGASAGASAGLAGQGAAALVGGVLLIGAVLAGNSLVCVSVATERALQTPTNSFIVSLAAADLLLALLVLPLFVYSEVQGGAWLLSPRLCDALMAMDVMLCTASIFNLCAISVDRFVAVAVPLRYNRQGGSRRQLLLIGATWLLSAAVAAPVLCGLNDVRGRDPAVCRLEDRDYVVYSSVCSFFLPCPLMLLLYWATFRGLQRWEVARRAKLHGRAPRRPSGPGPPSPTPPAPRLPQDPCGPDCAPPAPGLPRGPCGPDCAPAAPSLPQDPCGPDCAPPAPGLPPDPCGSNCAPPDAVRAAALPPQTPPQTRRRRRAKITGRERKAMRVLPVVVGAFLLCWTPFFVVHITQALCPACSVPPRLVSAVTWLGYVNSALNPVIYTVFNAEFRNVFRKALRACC

[4] = target: T4, Cholecystokinin receptor type A (Homo sapiens, UniProt P32238); format: cell membranes, Membrane; settings: 1321-n1; further: in other assays of this panel Not Active means under 50% inhibition at 10 µM
T4 sequence (P32238 whole entry): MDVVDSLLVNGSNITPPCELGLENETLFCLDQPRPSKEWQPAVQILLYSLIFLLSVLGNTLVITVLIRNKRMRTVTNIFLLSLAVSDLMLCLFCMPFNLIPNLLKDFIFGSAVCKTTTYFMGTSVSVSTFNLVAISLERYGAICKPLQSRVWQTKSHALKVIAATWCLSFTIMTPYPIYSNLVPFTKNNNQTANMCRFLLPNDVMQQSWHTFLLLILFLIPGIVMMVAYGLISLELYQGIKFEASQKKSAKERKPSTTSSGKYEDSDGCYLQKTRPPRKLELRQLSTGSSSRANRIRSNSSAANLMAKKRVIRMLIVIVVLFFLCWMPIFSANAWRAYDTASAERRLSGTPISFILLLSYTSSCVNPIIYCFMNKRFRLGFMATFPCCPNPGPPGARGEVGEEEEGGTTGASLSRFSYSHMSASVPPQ

[5] = DRUGMATRIX: Leukotriene, BLT (LTB4) radioligand binding (ligand: [3H]LTB4); format: cell membranes, Membrane; settings: u-937; Not Active = under 50% inhibition at 10 µM
[6] = target: T5, C-C chemokine receptor type 4 (Homo sapiens, UniProt P51679); format: cell membranes, Membrane; settings: chem-1; further: in other assays of this panel Not Active means under 50% inhibition at 10 µM
T5 sequence (P51679 whole entry): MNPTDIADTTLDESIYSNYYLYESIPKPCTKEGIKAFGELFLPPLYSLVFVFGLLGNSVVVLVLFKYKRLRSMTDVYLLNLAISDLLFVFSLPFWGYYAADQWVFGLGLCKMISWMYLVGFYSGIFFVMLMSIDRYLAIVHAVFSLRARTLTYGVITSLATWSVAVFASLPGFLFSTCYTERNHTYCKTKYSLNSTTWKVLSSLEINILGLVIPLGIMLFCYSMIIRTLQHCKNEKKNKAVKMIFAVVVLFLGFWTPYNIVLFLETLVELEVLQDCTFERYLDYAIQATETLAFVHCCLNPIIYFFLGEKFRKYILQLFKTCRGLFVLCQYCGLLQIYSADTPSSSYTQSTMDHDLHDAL

[7] = target: Beta-3 adrenergic receptor (Homo sapiens, UniProt P13945); test: DRUGMATRIX: Adrenergic beta3 radioligand binding (ligand: [125I] Cyanopindolol); format: cell membranes, HEK293, Membrane; settings: hek293; Not Active = under 50% inhibition at 10 µM
Sequence of Beta-3 adrenergic receptor (P13945 whole entry): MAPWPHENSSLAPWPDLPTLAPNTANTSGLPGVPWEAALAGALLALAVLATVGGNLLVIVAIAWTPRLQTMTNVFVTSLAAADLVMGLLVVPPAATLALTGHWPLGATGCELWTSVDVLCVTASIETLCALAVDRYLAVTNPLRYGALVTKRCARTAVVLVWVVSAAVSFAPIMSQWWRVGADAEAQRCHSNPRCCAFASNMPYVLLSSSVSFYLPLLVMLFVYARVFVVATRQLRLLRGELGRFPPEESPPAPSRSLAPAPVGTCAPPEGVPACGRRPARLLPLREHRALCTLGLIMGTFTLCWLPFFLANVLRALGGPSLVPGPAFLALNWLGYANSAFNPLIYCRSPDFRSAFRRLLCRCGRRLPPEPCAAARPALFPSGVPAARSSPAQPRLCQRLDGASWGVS

Sequence of Mu-type opioid receptor (P35372 whole entry): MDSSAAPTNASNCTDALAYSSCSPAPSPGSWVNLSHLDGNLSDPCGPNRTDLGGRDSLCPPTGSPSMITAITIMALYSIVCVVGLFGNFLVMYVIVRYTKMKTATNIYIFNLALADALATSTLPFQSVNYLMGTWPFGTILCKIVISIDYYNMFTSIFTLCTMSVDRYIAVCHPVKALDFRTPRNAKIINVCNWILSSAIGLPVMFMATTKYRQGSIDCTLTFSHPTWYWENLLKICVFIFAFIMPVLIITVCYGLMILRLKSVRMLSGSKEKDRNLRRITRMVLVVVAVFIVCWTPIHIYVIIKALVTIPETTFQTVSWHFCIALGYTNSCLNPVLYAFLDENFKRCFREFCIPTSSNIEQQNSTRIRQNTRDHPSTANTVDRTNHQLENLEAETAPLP
Sequence of Acetylcholinesterase (P22303 whole entry): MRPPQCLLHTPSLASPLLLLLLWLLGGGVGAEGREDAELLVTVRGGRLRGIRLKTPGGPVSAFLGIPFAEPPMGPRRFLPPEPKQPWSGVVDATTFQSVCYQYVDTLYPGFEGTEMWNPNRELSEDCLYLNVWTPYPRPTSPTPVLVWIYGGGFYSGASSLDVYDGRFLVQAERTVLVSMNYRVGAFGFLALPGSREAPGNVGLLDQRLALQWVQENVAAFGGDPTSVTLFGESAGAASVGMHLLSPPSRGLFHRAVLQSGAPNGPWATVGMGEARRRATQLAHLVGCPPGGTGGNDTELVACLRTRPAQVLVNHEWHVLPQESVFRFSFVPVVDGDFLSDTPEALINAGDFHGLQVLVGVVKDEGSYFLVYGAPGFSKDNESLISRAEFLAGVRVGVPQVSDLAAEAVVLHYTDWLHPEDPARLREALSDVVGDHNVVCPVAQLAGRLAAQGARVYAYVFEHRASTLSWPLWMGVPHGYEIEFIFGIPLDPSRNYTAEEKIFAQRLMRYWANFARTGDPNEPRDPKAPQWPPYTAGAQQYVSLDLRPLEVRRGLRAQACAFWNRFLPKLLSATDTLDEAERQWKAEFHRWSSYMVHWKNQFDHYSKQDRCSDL
Sequence of Cytochrome P450 2D6 (P10635 whole entry): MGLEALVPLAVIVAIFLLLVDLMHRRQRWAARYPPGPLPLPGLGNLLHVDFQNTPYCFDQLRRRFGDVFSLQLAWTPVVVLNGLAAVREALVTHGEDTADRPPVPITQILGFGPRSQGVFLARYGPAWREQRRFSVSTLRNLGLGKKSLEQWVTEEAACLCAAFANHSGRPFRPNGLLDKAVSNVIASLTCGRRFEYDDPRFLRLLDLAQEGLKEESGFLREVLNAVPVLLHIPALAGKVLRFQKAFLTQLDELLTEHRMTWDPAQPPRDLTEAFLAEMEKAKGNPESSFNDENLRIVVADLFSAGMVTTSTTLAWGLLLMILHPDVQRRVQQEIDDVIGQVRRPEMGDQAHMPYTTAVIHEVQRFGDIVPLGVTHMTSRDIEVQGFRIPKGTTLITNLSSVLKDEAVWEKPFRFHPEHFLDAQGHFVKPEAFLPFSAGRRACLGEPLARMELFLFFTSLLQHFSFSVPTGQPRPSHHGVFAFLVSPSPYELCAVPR
Sequence of Delta-type opioid receptor (P41143 whole entry): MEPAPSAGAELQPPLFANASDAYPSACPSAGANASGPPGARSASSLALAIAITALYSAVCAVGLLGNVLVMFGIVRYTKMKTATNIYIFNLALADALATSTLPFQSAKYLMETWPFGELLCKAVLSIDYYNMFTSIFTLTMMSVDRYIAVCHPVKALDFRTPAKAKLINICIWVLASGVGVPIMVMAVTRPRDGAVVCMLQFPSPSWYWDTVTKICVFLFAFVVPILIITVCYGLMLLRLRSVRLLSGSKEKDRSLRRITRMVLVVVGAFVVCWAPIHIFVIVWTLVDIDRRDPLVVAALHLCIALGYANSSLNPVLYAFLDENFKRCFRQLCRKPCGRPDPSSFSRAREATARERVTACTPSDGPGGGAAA

N=C(N)NCCCCNC(=N)N.O=S(=O)(O)O [ARCAINE SULFATE]
Not Active: IC50 (Acetylcholinesterase) | IC50 [1] | Ki [1] | IC50 [2] | IC50 (Mu-type opioid receptor) | IC50 (Cytochrome P450 2D6) | Ki (Cytochrome P450 2D6) | IC50 [3] | IC50 (Adenosine receptor A3) | IC50 (D(4) dopamine receptor) | IC50 [4] | IC50 [5] | Ki [5] | IC50 [6] | IC50 [7]

CNC(=O)Oc1ccc2c(c1)[C@]1(C)CCN(C)[C@@H]1N2C [PHYSOSTIGMINE]
Not Active: IC50 [1] | Ki [1] | IC50 [2] | IC50 (Mu-type opioid receptor) | IC50 [3] | IC50 (Adenosine receptor A3) | IC50 (D(4) dopamine receptor) | IC50 [4] | IC50 [5] | Ki [5] | IC50 [6] | IC50 [7]

Fc1ccc([C@@H]2CCNC[C@H]2COc2ccc3c(c2)OCO3)cc1 [PAROXETINE]
Not Active: IC50 (Acetylcholinesterase) | IC50 [1] | Ki [1] | IC50 [2] | IC50 (Mu-type opioid receptor) | IC50 [3] | IC50 (Adenosine receptor A3) | IC50 (D(4) dopamine receptor) | IC50 [4] | IC50 [5] | Ki [5] | IC50 [6] | IC50 [7]

CC1=Nc2ccc(Cl)cc2S(=O)(=O)N1 [DIAZOXIDE]
Not Active: IC50 (Acetylcholinesterase) | IC50 [1] | Ki [1] | IC50 [2] | IC50 (Mu-type opioid receptor) | IC50 (Cytochrome P450 2D6) | Ki (Cytochrome P450 2D6) | IC50 [3] | IC50 (Adenosine receptor A3) | IC50 (D(4) dopamine receptor) | IC50 [4] | IC50 [5] | Ki [5] | IC50 [6] | IC50 [7]

CC1COc2c(N3CCN(C)CC3)c(F)cc3c(=O)c(C(=O)O)cn1c23 (centres undefined) [OFLOXACIN]
Not Active: IC50 (Acetylcholinesterase) | IC50 [1] | Ki [1] | IC50 [2] | IC50 (Mu-type opioid receptor) | IC50 (Cytochrome P450 2D6) | Ki (Cytochrome P450 2D6) | IC50 [3] | IC50 (Adenosine receptor A3) | IC50 (D(4) dopamine receptor) | IC50 [4] | IC50 [5] | Ki [5] | IC50 [6] | IC50 [7]

CC(C)n1c(/C=C/C(O)CC(O)CC(=O)O)c(-c2ccc(F)cc2)c2ccccc21 (centres undefined) [FLUVASTATIN]
Not Active: IC50 (Acetylcholinesterase) | IC50 [1] | Ki [1] | IC50 [2] | IC50 (Mu-type opioid receptor) | IC50 (Cytochrome P450 2D6) | Ki (Cytochrome P450 2D6) | IC50 [3] | IC50 (Adenosine receptor A3) | IC50 (D(4) dopamine receptor) | IC50 [4] | IC50 [5] | Ki [5] | IC50 [6] | IC50 [7]

COc1ccc2c(c1)c(CC(=O)OCC(=O)O)c(C)n2C(=O)c1ccc(Cl)cc1 [ACEMETACIN]
Not Active: IC50 (Acetylcholinesterase) | IC50 [1] | Ki [1] | IC50 [2] | IC50 (Mu-type opioid receptor) | IC50 (Cytochrome P450 2D6) | Ki (Cytochrome P450 2D6) | IC50 [3] | IC50 (Adenosine receptor A3) | IC50 (D(4) dopamine receptor) | IC50 [4] | IC50 [5] | Ki [5] | IC50 [6] | IC50 [7]

CC(C)(Oc1ccc(CCNC(=O)c2ccc(Cl)cc2)cc1)C(=O)O [BEZAFIBRATE]
Not Active: IC50 (Acetylcholinesterase) | IC50 [1] | Ki [1] | IC50 [2] | IC50 (Mu-type opioid receptor) | IC50 (Cytochrome P450 2D6) | Ki (Cytochrome P450 2D6) | IC50 [3] | IC50 (Adenosine receptor A3) | IC50 (D(4) dopamine receptor) | IC50 [4] | IC50 [5] | Ki [5] | IC50 [6] | IC50 [7]

O=P1(NCCCl)OCCCN1CCCl (centres undefined) [IFOSFAMIDE]
Not Active: IC50 (Acetylcholinesterase) | IC50 [1] | Ki [1] | IC50 [2] | IC50 (Mu-type opioid receptor) | IC50 [3] | IC50 (Adenosine receptor A3) | IC50 (D(4) dopamine receptor) | IC50 [4] | IC50 [5] | Ki [5] | IC50 [6] | IC50 [7]

COc1ccc(CN(CCN(C)C)c2ccccn2)cc1 [PYRILAMINE]
Not Active: IC50 (Acetylcholinesterase) | IC50 [1] | Ki [1] | IC50 [2] | IC50 (Mu-type opioid receptor) | IC50 [3] | IC50 (Adenosine receptor A3) | IC50 (D(4) dopamine receptor) | IC50 [4] | IC50 [5] | Ki [5] | IC50 [6] | IC50 [7]

CCc1ccc(C(=O)C(C)CN2CCCCC2)cc1 (centres undefined) [EPERISONE]
Not Active: IC50 (Acetylcholinesterase) | IC50 [1] | Ki [1] | IC50 [2] | IC50 (Mu-type opioid receptor) | IC50 [3] | IC50 (Adenosine receptor A3) | IC50 (D(4) dopamine receptor) | IC50 [4] | IC50 [5] | Ki [5] | IC50 [6] | IC50 [7]
